Assay results reported in PMC10175918 (Communications Biology, 2023).
Where two headings read alike, the source gives them in different places.

Key:
Assay in all cases: TGFα-shedding assay-based GPCR screening with chimeric Gα subunit proteins
Format in all cases: cell-based
348 GPCRs [1] = target: 348 GPCRs (Homo sapiens, UniProt P31391); settings: 10µM, Favipiravir 100μM
348 GPCRs [2] = target: 348 GPCRs (Homo sapiens, UniProt P28566); settings: 5-HT1E (5-hydroxytryptamine receptor 1E); 10µM, Favipiravir 100μM
348 GPCRs [3] = target: T1, 348 GPCRs (Homo sapiens, UniProt P34972); settings: 10µM, Favipiravir 100μM
T1 construct: expressed in transfected cells; host or cells: HEK293A

348 GPCRs [4] = target: 348 GPCRs (Homo sapiens, UniProt P21554); settings: read-out: % GPCR activation compared to TPA, CB1 (cannabinoid receptor 1); 10µM, Favipiravir 100μM
348 GPCRs [5] = target: T2, 348 GPCRs (Homo sapiens, UniProt Q15760); settings: 10µM, Favipiravir 100μM
T2 construct: expressed in transfected cells; host or cells: HEK293A

348 GPCRs [6] = target: 348 GPCRs (Homo sapiens, UniProt P35346); settings: 10µM, Favipiravir 100μM
348 GPCRs [7] = target: T3, 348 GPCRs (Homo sapiens, UniProt P43657); settings: 10µM, Favipiravir 100μM
T3 construct: expressed in transfected cells; host or cells: HEK293A
T3 sequence (P43657 1-344): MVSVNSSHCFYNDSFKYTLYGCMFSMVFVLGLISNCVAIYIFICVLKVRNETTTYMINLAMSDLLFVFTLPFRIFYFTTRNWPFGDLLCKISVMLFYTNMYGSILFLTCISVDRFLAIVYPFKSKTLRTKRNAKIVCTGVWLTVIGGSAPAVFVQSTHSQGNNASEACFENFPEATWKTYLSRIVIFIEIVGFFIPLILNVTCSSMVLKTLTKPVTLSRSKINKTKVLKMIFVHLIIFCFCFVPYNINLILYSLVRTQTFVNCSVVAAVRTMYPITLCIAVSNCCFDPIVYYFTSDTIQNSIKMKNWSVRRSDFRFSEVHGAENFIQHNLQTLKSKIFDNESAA

348 GPCRs [8] = target: T4, 348 GPCRs (Homo sapiens, UniProt Q9Y2T5)
T4 construct: expressed in transfected cells; host or cells: HEK293A

348 GPCRs [9] = target: T5, 348 GPCRs (Homo sapiens, UniProt Q9NZD1); settings: 10µM, Favipiravir 100μM
T5 construct: expressed in transfected cells; host or cells: HEK293A

348 GPCRs [10] = target: T6, 348 GPCRs (Homo sapiens, UniProt P21452); settings: 10µM, Favipiravir 100μM
T6 construct: expressed in transfected cells; host or cells: HEK293A
T6 sequence (P21452 1-398): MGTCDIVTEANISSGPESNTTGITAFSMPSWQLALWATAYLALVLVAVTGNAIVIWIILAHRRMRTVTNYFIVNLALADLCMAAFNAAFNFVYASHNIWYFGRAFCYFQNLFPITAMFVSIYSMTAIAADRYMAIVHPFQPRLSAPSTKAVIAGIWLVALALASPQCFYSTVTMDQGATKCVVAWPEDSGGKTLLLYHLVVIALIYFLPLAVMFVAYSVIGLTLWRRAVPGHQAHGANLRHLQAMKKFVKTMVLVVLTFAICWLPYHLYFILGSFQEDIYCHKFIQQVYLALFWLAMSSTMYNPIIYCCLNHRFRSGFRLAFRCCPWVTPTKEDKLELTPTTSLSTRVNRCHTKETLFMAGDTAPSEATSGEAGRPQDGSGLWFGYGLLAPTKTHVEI

348 GPCRs [11] = target: 348 GPCRs (Homo sapiens, UniProt P21918); settings: 10µM, Favipiravir 100μM
348 GPCRs [12] = target: T7, 348 GPCRs (Homo sapiens, UniProt Q96RI8); settings: 10µM, Favipiravir 100μM
T7 construct: expressed in transfected cells; host or cells: HEK293A
T7 sequence (Q96RI8 1-345): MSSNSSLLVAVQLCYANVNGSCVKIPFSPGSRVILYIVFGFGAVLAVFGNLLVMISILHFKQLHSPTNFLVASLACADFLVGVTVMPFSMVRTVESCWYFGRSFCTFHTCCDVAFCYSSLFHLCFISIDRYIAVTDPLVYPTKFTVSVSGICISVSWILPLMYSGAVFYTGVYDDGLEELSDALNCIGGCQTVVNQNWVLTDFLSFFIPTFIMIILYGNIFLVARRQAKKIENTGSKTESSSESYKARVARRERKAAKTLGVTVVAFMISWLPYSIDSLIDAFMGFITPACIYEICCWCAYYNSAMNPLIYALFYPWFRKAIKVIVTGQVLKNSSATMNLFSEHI

348 GPCRs [13] = target: T8, 348 GPCRs (Homo sapiens, UniProt Q99678); settings: 10µM, Favipiravir 100μM
T8 construct: expressed in transfected cells; host or cells: HEK293A

348 GPCRs [14] = target: T9, 348 GPCRs (Homo sapiens, UniProt O00222); settings: 10µM, Favipiravir 100μM
T9 construct: expressed in transfected cells; host or cells: HEK293A

[15] = SSTR4 (somatostatin receptor 4), read-out: % GPCR activation compared to TPA
[16] = CB2 (cannabinoid receptor 2), read-out: % GPCR activation compared to TPA
[17] = GPR19 (G Protein-Coupled Receptor 19), read-out: % GPCR activation compared to TPA
[18] = SSTR5 (somatostatin receptor 5), read-out: % GPCR activation compared to TPA
[19] = LPAR6 (lysophosphatidic acid receptor 6), read-out: % GPCR activation compared to TPA
[20] = GPCR GPR52 (G protein-coupled receptor 52), read-out: % GPCR activation compared to TPA
[21] = GPRC5D (G protein-coupled receptor class C group 5 member D), read-out: % GPCR activation compared to TPA
[22] = NK2 (tachykinin receptor 2), read-out: % GPCR activation compared to TPA
[23] = D5 (dopamine receptor D5), read-out: % GPCR activation compared to TPA
[24] = TAAR6 (trace amine associated receptor 6), read-out: % GPCR activation compared to TPA
[25] = GPR20 (G protein-coupled receptor 20), read-out: % GPCR activation compared to TPA
[26] = GRM8 (glutamate receptor, metabotropic 8), read-out: % GPCR activation compared to TPA
[27] = read-out: % GPCR activation compared to TPA, SSTR4 (somatostatin receptor 4)
[28] = read-out: % GPCR activation compared to TPA, CB2 (cannabinoid receptor 2)
[29] = read-out: % GPCR activation compared to TPA, GPR19 (G Protein-Coupled Receptor 19)
[30] = read-out: % GPCR activation compared to TPA, SSTR5 (somatostatin receptor 5)
[31] = read-out: % GPCR activation compared to TPA, LPAR6 (lysophosphatidic acid receptor 6)
[32] = read-out: % GPCR activation compared to TPA, GPCR GPR52 (G protein-coupled receptor 52)
[33] = read-out: % GPCR activation compared to TPA, GPRC5D (G protein-coupled receptor class C group 5 member D)
[34] = read-out: % GPCR activation compared to TPA, NK2 (tachykinin receptor 2)
[35] = read-out: % GPCR activation compared to TPA, D5 (dopamine receptor D5)
[36] = read-out: % GPCR activation compared to TPA, TAAR6 (trace amine associated receptor 6)
[37] = read-out: % GPCR activation compared to TPA, GPR20 (G protein-coupled receptor 20)
[38] = read-out: % GPCR activation compared to TPA, GRM8 (glutamate receptor, metabotropic 8)

T1 sequence (P34972 whole entry): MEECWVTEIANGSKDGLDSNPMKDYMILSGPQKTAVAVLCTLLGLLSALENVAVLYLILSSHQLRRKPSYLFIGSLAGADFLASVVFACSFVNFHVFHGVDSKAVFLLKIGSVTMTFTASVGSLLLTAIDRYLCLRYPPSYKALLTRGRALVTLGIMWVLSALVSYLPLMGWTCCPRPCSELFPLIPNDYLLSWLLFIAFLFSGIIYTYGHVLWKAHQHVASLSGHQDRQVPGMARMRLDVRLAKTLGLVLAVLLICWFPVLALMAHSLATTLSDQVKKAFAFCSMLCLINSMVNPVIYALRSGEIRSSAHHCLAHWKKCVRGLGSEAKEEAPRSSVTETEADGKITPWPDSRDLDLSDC
T5 sequence (Q9NZD1 whole entry): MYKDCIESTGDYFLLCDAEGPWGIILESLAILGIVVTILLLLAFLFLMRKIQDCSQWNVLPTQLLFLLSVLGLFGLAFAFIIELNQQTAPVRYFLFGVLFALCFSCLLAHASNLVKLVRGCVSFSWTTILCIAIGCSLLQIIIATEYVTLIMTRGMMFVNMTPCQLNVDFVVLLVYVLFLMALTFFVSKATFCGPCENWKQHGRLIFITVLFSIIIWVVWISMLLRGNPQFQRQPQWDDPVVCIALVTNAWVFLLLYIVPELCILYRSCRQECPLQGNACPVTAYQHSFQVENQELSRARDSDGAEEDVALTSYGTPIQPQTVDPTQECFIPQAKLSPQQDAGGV
T4 sequence (Q9Y2T5 whole entry): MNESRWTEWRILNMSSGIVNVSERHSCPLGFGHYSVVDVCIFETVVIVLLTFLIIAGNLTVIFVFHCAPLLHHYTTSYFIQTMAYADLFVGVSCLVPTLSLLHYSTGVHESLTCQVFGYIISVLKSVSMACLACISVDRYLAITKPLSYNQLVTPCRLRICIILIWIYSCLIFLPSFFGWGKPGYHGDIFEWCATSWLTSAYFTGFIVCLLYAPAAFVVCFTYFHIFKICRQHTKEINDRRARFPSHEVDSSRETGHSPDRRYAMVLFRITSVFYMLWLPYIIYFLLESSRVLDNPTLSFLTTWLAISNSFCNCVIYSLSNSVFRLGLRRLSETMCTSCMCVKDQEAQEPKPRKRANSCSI
T2 sequence (Q15760 whole entry): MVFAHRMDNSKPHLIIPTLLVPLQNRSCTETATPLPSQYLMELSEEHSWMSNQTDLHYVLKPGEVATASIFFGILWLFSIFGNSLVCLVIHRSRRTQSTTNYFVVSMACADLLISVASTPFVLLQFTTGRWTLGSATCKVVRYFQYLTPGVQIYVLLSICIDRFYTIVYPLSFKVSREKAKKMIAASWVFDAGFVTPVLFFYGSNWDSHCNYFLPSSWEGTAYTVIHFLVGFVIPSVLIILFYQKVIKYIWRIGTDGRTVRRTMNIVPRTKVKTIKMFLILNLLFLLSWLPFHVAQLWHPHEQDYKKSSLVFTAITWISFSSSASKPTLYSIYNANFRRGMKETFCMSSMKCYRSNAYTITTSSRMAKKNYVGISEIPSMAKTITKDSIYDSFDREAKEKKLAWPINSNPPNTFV
Sequence of 348 GPCRs (Homo sapiens, UniProt P21918) (P21918 whole entry): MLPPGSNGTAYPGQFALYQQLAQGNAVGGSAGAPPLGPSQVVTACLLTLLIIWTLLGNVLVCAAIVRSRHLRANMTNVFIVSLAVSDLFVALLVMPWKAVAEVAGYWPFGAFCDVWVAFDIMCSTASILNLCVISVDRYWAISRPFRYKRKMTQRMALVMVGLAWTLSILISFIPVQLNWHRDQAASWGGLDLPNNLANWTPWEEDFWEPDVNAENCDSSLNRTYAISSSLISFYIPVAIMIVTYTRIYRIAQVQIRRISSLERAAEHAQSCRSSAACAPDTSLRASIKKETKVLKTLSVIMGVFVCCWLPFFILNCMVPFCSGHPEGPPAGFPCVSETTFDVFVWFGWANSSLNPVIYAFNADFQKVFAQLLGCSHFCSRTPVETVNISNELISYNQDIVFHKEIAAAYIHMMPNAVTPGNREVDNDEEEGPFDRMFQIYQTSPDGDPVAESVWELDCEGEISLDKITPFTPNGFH
Sequence of 348 GPCRs (Homo sapiens, UniProt P31391) (P31391 whole entry): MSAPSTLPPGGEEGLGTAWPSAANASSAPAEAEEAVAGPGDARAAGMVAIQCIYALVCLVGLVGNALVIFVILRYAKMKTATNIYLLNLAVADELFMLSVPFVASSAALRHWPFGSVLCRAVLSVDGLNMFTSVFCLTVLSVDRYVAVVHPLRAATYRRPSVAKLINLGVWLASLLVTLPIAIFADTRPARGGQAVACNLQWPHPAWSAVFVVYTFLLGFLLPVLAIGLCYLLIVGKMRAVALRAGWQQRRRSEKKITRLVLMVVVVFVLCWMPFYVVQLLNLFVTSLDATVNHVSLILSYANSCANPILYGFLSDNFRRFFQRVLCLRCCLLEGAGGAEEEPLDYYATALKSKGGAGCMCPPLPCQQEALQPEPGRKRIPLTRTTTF
T8 sequence (Q99678 whole entry): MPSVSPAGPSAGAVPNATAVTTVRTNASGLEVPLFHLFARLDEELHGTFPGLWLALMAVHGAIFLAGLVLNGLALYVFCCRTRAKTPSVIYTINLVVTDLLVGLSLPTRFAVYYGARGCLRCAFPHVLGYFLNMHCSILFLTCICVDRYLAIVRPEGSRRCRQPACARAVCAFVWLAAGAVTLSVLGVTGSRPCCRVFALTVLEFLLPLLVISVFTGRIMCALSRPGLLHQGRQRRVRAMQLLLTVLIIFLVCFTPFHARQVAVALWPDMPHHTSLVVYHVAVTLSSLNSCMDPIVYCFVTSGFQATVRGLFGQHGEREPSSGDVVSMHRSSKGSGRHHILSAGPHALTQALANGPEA
Sequence of 348 GPCRs (Homo sapiens, UniProt P28566) (P28566 whole entry): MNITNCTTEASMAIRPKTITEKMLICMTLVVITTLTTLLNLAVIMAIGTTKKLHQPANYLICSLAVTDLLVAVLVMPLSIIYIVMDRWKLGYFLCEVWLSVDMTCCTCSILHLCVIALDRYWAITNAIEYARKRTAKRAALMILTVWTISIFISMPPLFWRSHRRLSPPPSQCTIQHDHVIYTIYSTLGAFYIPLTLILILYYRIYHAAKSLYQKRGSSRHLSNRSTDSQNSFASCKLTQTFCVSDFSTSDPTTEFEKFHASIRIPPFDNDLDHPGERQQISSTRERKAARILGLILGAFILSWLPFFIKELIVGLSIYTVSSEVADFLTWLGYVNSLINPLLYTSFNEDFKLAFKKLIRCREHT
Sequence of 348 GPCRs (Homo sapiens, UniProt P21554) (P21554 whole entry): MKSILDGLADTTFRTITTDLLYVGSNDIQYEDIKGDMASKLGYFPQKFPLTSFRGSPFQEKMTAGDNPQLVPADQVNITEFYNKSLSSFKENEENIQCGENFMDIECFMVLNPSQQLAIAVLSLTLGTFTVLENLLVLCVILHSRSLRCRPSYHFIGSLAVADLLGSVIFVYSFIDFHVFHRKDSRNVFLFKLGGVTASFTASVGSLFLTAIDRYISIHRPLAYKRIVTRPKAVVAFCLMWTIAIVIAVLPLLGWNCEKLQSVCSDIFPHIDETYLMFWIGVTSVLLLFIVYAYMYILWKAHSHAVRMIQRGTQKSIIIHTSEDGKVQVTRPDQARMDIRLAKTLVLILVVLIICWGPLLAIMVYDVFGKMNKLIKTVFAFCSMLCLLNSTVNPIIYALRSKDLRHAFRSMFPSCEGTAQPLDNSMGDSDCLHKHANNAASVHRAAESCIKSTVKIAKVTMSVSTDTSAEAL
T9 sequence (O00222 34-908): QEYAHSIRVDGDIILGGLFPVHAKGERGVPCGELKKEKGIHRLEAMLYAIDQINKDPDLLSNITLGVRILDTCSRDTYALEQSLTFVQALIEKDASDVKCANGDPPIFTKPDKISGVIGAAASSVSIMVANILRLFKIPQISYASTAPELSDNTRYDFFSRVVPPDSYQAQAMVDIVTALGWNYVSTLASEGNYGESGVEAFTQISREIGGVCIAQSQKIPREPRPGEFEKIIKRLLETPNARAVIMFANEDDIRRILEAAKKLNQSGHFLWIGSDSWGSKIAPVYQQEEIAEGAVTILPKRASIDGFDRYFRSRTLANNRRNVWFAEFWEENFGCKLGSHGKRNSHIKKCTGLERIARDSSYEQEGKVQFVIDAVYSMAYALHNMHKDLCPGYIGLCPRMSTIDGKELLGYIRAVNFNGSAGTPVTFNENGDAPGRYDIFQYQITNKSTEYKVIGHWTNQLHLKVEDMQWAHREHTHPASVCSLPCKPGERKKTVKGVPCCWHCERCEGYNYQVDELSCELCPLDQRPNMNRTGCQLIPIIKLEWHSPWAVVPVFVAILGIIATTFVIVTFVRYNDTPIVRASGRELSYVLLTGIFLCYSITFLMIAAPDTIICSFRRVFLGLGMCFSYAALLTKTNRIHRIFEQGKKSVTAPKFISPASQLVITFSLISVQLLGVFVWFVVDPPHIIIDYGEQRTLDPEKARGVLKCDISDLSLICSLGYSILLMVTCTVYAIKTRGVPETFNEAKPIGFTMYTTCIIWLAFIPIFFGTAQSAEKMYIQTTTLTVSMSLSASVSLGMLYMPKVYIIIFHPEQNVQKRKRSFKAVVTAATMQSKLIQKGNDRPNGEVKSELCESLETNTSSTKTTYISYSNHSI
Sequence of 348 GPCRs (Homo sapiens, UniProt P35346) (P35346 whole entry): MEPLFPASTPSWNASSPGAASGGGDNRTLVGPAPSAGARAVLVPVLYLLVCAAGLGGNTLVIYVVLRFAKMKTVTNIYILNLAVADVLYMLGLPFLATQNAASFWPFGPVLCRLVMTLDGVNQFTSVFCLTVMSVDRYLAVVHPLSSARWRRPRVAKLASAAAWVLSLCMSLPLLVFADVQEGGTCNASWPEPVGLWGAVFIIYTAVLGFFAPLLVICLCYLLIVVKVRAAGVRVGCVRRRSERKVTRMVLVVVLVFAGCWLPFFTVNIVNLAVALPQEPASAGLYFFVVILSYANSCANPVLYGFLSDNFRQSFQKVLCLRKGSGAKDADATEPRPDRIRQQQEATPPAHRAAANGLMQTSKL

Structure (SMILES) | activation at 10 µM (348 GPCRs [1]; [15]) | % GPCR activation compared to TPA (348 GPCRs [2]) | activation at 100 µM (348 GPCRs [3]; [16]) | activation at 100 µM (348 GPCRs [4]) | activation at 100 µM (348 GPCRs [5]; [17]) | activation at 10 µM (348 GPCRs [6]; [18]) | activation at 10 µM (348 GPCRs [7]; [19]) | activation at 10 µM (348 GPCRs [8]; [20]) | activation at 10 µM (348 GPCRs [9]; [21]) | activation at 10 µM (348 GPCRs [10]; [22]) | activation at 100 µM (348 GPCRs [11]; [23]) | activation at 100 µM (348 GPCRs [12]; [24]) | activation at 100 µM (348 GPCRs [13]; [25]) | activation at 10 µM (348 GPCRs [14]; [26]) | activation at 10 µM (348 GPCRs [1]; [27]) | activation at 100 µM (348 GPCRs [3]; [28]) | activation at 100 µM (348 GPCRs [5]; [29]) | activation at 10 µM (348 GPCRs [6]; [30]) | activation at 10 µM (348 GPCRs [7]; [31]) | activation at 10 µM (348 GPCRs [8]; [32]) | also measured
N#C[C@@]1(c2ccc3c(N)ncnn23)O[C@H](CO)[C@@H](O)[C@H]1O [GS441524] | -0.36% | -1.385% | -0.772% | 0.0409% | -0.932% | -0.162% | -2.57% | -1.15% | -1.93% | 0.00909% | 1.11% | -1.31% | 7.2% | -1.24% | – | – | – | – | – | – | –
CC(C)OC(=O)[C@H](C)N[P@](=O)(OC[C@H]1O[C@@H](n2ccc(=O)[nH]c2=O)[C@](C)(F)[C@@H]1O)Oc1ccccc1 [sofosbuvir] | – | -1.207% | – | -1.13% | – | – | – | – | – | – | – | – | – | – | 0.279% | -2.78% | -1.2% | -0.552% | 0.0867% | -2.66% | activation at 10 µM (348 GPCRs [9]; [33]): 0.492%; activation at 10 µM (348 GPCRs [10]; [34]): -3.34%; activation at 100 µM (348 GPCRs [11]; [35]): -1.22%; activation at 100 µM (348 GPCRs [12]; [36]): -3.52%; activation at 100 µM (348 GPCRs [13]; [37]): -2.45%; activation at 10 µM (348 GPCRs [14]; [38]): -2.01%
CCC(CC)COC(=O)[C@H](C)N[P@](=O)(OC[C@H]1O[C@@](C#N)(c2ccc3c(N)ncnn23)[C@H](O)[C@@H]1O)Oc1ccccc1 [remdesivir] | – | -0.07183% | – | -4.06% | – | – | – | – | – | – | – | – | – | – | 0.732% | -0.086% | -1.37% | -0.348% | -2.67% | -0.476% | activation at 10 µM (348 GPCRs [9]; [33]): -0.473%; activation at 10 µM (348 GPCRs [10]; [34]): 1.32%; activation at 100 µM (348 GPCRs [11]; [35]): 7.06%; activation at 100 µM (348 GPCRs [12]; [36]): -0.419%; activation at 100 µM (348 GPCRs [13]; [37]): 8.9%; activation at 10 µM (348 GPCRs [14]; [38]): -1.11%
CC(C)C(=O)OC[C@H]1O[C@@H](n2ccc(NO)nc2=O)[C@H](O)[C@@H]1O [molnupiravir] | -1.09% | -0.994% | -1.91% | -1.3% | -0.76% | -2.28% | -2.83% | -1.34% | -0.168% | -2.23% | -1.18% | -2.31% | -0.078% | -2.47% | – | – | – | – | – | – | –
NC(=O)c1nc(F)cnc1O [favipiravir, 6-fluoro-3-hydroxy-2-pyrazinecarboxamide] | -0.164% | 0.5554% | 1.24% | 1.89% | -0.654% | 2.28% | -2.1% | – | -2.09% | 1.15% | 3.39% | -1.51% | 3.63% | -1.56% | – | – | – | – | – | – | activation at 100 µM (348 GPCRs [8]; GPCR GPR52 (G protein-coupled receptor 52), 100μM, read-out: % GPCR activation compared to TPA): -2.31%
